Source: patent US20110097274A1, “Carbon-11 and fluorine-18 labeled radioligands for positron emission tomography (PET) imaging for the brain serotonin transporters” (priority 2002, published 2011)
Read-outs that look alike come from different tables or passages of the source.

Experiments:
SERT = experiment: Experiment 5: PET brain imaging of ^11C and ^18F labeled AFM, AFA, AFE in one baboon; format: in vivo; conditions: one adult male baboon, n = 1 to 4 scans, two-compartment model
Experimental: (§1) General scanning methods were as described in Huang et al. (2002). Arterial input function was measured and corrected for metabolites.
Activity distributed in the brain in accordance to the known density distribution pattern of SERT (Laruelle et al., 1988). […] Data were analyzed with a two-compartment model, using the metabolite-corrected arterial time-activity curve as input function. This analysis provided the regional distribution volumes (VT, mL/g).
The nonspecific distribution volume, measured as the distribution volume of the cerebellum (a region with negligible SERT density) was in a similar range for all tracers (10 to 30 mL/g, Table 16).
The specific to nonspecific partition coefficient, V3″, was calculated as the ratio of VT in the region of interest (ROI) to cerebellum VT minus one. V3″ provides a measure related to receptor parameters as follows: […]

[1] = Biodistribution of labeled radioligands in male Sprague-Dawley rats; format: in vivo; conditions: mean ± SD, n = 3
Text: Appropriately labeled compounds were studied in animals to assess their binding characteristics in the brain. Procedures for these biodistribution studies are as follows. […] The brain regions (cerebellum, hippocampus, striatum, frontal cortex, thalamus and hypothalamus), along with samples of blood and part of the tail, were removed, weighed, and counted in a Packard Cobra II gamma counter. The percent injected dose (% ID) of the decay- and tail-corrected activity in the brain regions and blood were calculated based upon C-11 standards prepared from the injection solution, and the % ID/g were calculated using the tissue weights.

[2] = Experiment 5: plasma clearance of ^11C and ^18F labeled AFM, AFA, AFE in one baboon; format: in vivo; conditions: one adult male baboon, n = 1 to 4 scans
Experimental: as §1

[3] = target: T1, dopamine transporter (DAT) (Homo sapiens, UniProt Q01959); experiment: In vitro binding affinity for DAT, radioligand [^3H]GBR12935 (Table 1); set-up: species or system rat or human (cloned)
T1 construct: host or cells: either rat cortical tissue or cells expressing the cloned human transporter
T1 sequence (Q01959 whole entry, species assumed): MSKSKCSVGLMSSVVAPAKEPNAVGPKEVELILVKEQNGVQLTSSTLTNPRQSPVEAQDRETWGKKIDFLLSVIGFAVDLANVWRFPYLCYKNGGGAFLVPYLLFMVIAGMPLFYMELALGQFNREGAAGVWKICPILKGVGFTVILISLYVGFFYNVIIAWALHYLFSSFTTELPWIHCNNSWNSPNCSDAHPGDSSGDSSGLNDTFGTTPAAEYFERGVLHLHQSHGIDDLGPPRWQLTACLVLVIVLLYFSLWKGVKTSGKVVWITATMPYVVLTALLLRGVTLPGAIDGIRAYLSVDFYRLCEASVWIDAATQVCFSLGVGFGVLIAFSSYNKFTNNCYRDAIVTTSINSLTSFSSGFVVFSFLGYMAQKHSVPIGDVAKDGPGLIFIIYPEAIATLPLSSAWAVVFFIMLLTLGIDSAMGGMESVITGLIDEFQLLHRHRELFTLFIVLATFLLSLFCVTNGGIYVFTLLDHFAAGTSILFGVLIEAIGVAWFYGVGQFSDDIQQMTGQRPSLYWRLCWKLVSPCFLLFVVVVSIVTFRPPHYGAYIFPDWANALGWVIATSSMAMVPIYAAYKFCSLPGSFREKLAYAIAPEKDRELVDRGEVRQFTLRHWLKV
Experimental: (§2) Selected compounds were assayed in vitro for their binding affinity for the dopamine transporter (DAT), serotonin transporter (SERT), and norepinephrine transporter (NET) using membranes prepared from either the rat cortical tissues or cells expressed with cloned-human transporters and radioligands. Radioligands used were [^3H]paroxetine (SERT), [^3H]nisoxetine (NET), and [^3H]GBR12935 (DAT).

[4] = target: T2, norepinephrine transporter (NET) (Homo sapiens, UniProt P23975); experiment: In vitro binding affinity for NET, radioligand [^3H]nisoxetine (Table 1); set-up: species or system rat or human (cloned)
T2 construct: host or cells: either rat cortical tissue or cells expressing the cloned human transporter
T2 sequence (P23975 whole entry, species assumed): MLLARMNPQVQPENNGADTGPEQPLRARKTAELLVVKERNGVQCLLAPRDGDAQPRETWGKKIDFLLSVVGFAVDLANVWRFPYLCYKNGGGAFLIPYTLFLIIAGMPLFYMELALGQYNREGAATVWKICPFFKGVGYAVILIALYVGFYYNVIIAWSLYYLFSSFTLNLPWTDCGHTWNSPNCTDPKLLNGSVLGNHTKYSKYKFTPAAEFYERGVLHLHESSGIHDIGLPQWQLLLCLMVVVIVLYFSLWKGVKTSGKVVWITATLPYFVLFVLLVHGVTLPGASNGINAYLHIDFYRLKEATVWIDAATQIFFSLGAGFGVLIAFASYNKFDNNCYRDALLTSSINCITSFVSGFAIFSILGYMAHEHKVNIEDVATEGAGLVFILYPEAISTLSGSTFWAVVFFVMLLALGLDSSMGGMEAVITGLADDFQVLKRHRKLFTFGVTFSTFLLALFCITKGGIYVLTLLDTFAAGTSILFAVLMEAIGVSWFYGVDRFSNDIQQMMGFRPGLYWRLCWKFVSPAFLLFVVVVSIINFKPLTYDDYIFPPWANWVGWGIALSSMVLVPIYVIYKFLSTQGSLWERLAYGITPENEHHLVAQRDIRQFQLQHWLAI
Experimental: as §2

[5] = target: T3, serotonin transporter (SERT) (Rattus norvegicus, UniProt P31652); experiment: In vitro binding affinity for SERT, radioligand [^3H]paroxetine (Table 1); set-up: species or system rat or human (cloned)
T3 construct: membranes prepared from either the rat cortical tissues or cells expressed with cloned-human transporters; from tissue; host or cells: rat cortical tissue membranes (inferred; the alternative is cells expressing cloned human SERT)
T3 sequence (P31652 whole entry): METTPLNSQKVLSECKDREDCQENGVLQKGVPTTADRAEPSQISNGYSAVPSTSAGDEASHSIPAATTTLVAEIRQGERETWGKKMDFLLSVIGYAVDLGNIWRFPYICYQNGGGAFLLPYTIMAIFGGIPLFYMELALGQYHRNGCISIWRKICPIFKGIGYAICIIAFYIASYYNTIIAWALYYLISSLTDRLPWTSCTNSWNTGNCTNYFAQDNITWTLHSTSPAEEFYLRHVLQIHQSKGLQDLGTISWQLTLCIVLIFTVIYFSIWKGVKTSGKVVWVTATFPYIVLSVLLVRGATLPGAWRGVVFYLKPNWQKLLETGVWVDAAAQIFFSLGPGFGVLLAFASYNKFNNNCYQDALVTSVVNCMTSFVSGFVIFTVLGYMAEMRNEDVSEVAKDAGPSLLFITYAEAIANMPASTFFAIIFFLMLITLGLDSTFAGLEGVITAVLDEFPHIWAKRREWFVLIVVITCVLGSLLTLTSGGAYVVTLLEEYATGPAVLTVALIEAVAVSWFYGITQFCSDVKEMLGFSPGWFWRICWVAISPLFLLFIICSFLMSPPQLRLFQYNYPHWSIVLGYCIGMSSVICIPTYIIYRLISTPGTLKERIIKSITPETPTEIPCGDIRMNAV
Experimental: as §2

Compound | % ID/g Blood ([1]; 10 min post-injection) [% ID/g] | % ID/g Cerebellum ([1]; 10 min post-injection) [% ID/g] | % ID/g Frontal Ctx. ([1]; 10 min post-injection) [% ID/g] | % ID/g Hippocamp. ([1]; 10 min post-injection) [% ID/g] | % ID/g Hypothal. ([1]; 10 min post-injection) [% ID/g] | % ID/g Striatum ([1]; 10 min post-injection) [% ID/g] | % ID/g Thalamus ([1]; 10 min post-injection) [% ID/g] | % ID/g Blood ([1]; 30 min post-injection) [% ID/g] | % ID/g Cerebellum ([1]; 30 min post-injection) [% ID/g] | % ID/g Frontal Ctx. ([1]; 30 min post-injection) [% ID/g] | % ID/g Hippocamp. ([1]; 30 min post-injection) [% ID/g] | % ID/g Hypothal. ([1]; 30 min post-injection) [% ID/g] | % ID/g Striatum ([1]; 30 min post-injection) [% ID/g] | % ID/g Thalamus ([1]; 30 min post-injection) [% ID/g] | % ID/g Blood ([1]; 60 min post-injection) [% ID/g] | % ID/g Cerebellum ([1]; 60 min post-injection) [% ID/g] | % ID/g Frontal Ctx. ([1]; 60 min post-injection) [% ID/g] | % ID/g Hippocamp. ([1]; 60 min post-injection) [% ID/g] | % ID/g Hypothal. ([1]; 60 min post-injection) [% ID/g] | % ID/g Striatum ([1]; 60 min post-injection) [% ID/g] | other results
CN(C)Cc1ccccc1Sc1ccc(CC[18F])cc1N [[^18F]AFE, [^18F]2-[2-(Dimethylaminomethyl)phenylthio]-5-(2-fluoroethyl)phenylamine] | 0.25 ± 0.01 | 0.28 ± 0.02 | 0.62 ± 0.08 | 0.38 ± 0.03 | 0.51 ± 0.05 | 0.51 ± 0.05 | 0.58 ± 0.08 | 0.13 ± 0.03 | 0.13 ± 0.01 | 0.32 ± 0.01 | 0.27 ± 0.04 | 0.41 ± 0.03 | 0.33 ± 0.01 | 0.39 ± 0.01 | 0.07 ± 0.02 | 0.06 ± 0.01 | 0.19 ± 0.04 | 0.17 ± 0.04 | 0.24 ± 0.04 | 0.21 ± 0.05 | Cerebellum V (nonspecific distribution volume) (SERT): 19 mL/g; % ID/g Thalamus ([1]; 60 min post-injection): 0.27 ± 0.04 % ID/g; % ID/g Blood ([1]; 90 min post-injection): 0.04 ± 0.01 % ID/g; % ID/g Cerebellum ([1]; 90 min post-injection): 0.03 ± 0.01 % ID/g; % ID/g Frontal Ctx. ([1]; 90 min post-injection): 0.08 ± 0.01 % ID/g; % ID/g Hippocamp. ([1]; 90 min post-injection): 0.09 ± 0.01 % ID/g; % ID/g Hypothal. ([1]; 90 min post-injection): 0.14 ± 0.02 % ID/g; % ID/g Striatum ([1]; 90 min post-injection): 0.10 ± 0.02 % ID/g; % ID/g Thalamus ([1]; 90 min post-injection): 0.17 ± 0.02 % ID/g; % ID/g Blood ([1]; 120 min post-injection): 0.02 ± 0.01 % ID/g; % ID/g Cerebellum ([1]; 120 min post-injection): 0.02 ± 0.00 % ID/g; % ID/g Frontal Ctx. ([1]; 120 min post-injection): 0.06 ± 0.00 % ID/g; % ID/g Hippocamp. ([1]; 120 min post-injection): 0.07 ± 0.00 % ID/g; % ID/g Hypothal. ([1]; 120 min post-injection): 0.10 ± 0.01 % ID/g; % ID/g Striatum ([1]; 120 min post-injection): 0.08 ± 0.01 % ID/g; % ID/g Thalamus ([1]; 120 min post-injection): 0.13 ± 0.02 % ID/g; Clearance [2]: 71 L/h
CN([11CH3])Cc1ccccc1Sc1ccc(F)cc1N [[^11C]AFA, [^11C]2-[2-(Dimethylaminomethyl)phenylthio]-5-fluorophenylamine] | 0.26 ± 0.10 | 0.35 ± 0.12 | 0.70 ± 0.25 | 0.48 ± 0.17 | 0.55 ± 0.18 | 0.54 ± 0.18 | 0.60 ± 0.24 | 0.08 ± 0.01 | 0.14 ± 0.02 | 0.49 ± 0.06 | 0.34 ± 0.02 | 0.47 ± 0.06 | 0.38 ± 0.14 | 0.44 ± 0.05 | 0.06 ± 0.01 | 0.09 ± 0.02 | 0.29 ± 0.05 | 0.24 ± 0.03 | 0.42 ± 0.06 | 0.26 ± 0.04 | Cerebellum V (nonspecific distribution volume) (SERT): 13 ± 3 mL/g; % ID/g Thalamus ([1]; 60 min post-injection): 0.39 ± 0.04 % ID/g; Clearance [2]: 54 ± 6 L/h
CN(C)Cc1ccccc1Sc1ccc(CCF)cc1N [AFE, 2-(2-(Dimethylaminomethyl)phenylthio)-5-(2-fluoroethyl)phenylamine] |  |  |  |  |  |  |  |  |  |  |  |  |  |  |  |  |  |  |  |  | Ki [3]: > 10 µM; Ki [4]: 0.946 µM; Ki [5]: 0.00188 µM
CN(C)Cc1ccccc1Sc1ccc(CCF)cc1N [[^11C]AFE, [^11C]2-[2-(Dimethylaminomethyl)phenylthio]-5-fluoroethylphenylamine] | 0.15 ± 0.03 | 0.31 ± 0.03 | 0.61 ± 0.07 | 0.44 ± 0.04 | 0.61 ± 0.11 | 0.58 ± 0.08 | 0.63 ± 0.08 | 0.07 ± 0.01 | 0.12 ± 0.00 | 0.39 ± 0.03 | 0.31 ± 0.03 | 0.44 ± 0.04 | 0.35 ± 0.05 | 0.44 ± 0.05 | 0.05 ± 0.01 | 0.05 ± 0.00 | 0.19 ± 0.02 | 0.18 ± 0.02 | 0.29 ± 0.03 | 0.19 ± 0.02 | Cerebellum V (nonspecific distribution volume) (SERT): 16 mL/g; % ID/g Thalamus ([1]; 60 min post-injection): 0.22 ± 0.01 % ID/g; Clearance [2]: 73 L/h
Cc1ccc(Sc2ccccc2CN(C)C)c(N)c1 [MADAM, 2-(2-(Dimethylaminomethyl)phenylthio)-5-methylphenylamine] |  |  |  |  |  |  |  |  |  |  |  |  |  |  |  |  |  |  |  |  | Ki [3]: > 10 µM; Ki [4]: 0.32 µM; Ki [5]: 0.00119 µM
CN(C)Cc1ccccc1Sc1ccc(CCCF)cc1N [AFP, 2-(2-(Dimethylaminomethyl)phenylthio)-5-(3-fluoropropyl)-phenylamine] |  |  |  |  |  |  |  |  |  |  |  |  |  |  |  |  |  |  |  |  | Ki [3]: > 10 µM; Ki [4]: 0.505 µM; Ki [5]: 0.00358 µM
CN(C)Cc1ccccc1Sc1ccc(F)cc1N [AFA, 2-(2-(Dimethylaminomethyl)phenylthio)-5-fluorophenylamine] |  |  |  |  |  |  |  |  |  |  |  |  |  |  |  |  |  |  |  |  | Ki [3]: > 10 µM; Ki [4]: 0.142 µM; Ki ([5]; read-out: Ki SERT): 0.00146 µM
Cc1ccc(Sc2ccccc2CN(C)[11CH3])c(N)c1 [[^11C]MADAM, [^11C]2-[2-(Dimethylaminomethyl)phenylthio]-5-methylphenylamine] | 0.61 ± 0.15 | 1.04 ± 0.33 | 2.17 ± 0.78 | 1.39 ± 0.29 | 1.93 ± 0.72 | 1.57 ± 0.54 | 1.95 ± 0.61 | 0.26 ± 0.07 | 0.55 ± 0.04 | 1.78 ± 0.23 | 1.14 ± 0.17 | 1.48 ± 0.22 | 1.41 ± 0.21 | 1.66 ± 0.17 | 0.15 ± 0.04 | 0.27 ± 0.01 | 0.89 ± 0.07 | 0.84 ± 0.27 | 1.39 ± 0.28 | 0.81 ± 0.15 | % ID/g Thalamus ([1]; 60 min post-injection): 1.14 ± 0.18 % ID/g
